These results are taken from patent publication US7345058B2, “Pyrazoles” (Hoffmann-La Roche Inc., priority 2005, dated 2008).

The structures appear in SMILES notation.

Sequence of Purified human HSD1 (P28845 whole entry): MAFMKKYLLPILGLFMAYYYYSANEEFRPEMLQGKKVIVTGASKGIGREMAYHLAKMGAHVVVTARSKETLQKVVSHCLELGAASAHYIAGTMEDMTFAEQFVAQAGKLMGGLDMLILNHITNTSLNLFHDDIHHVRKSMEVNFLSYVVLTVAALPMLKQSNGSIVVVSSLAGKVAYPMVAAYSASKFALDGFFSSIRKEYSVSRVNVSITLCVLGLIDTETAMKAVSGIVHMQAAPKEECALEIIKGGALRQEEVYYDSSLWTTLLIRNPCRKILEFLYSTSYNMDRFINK

This assay concerns the target Purified human HSD1 (Homo sapiens, UniProt P28845). The assay can be described thus: In vitro inhibition of 11β-HSD1 (time-resolved fluorescence, cortisone to cortisol). In kind it is biochemical. The note with it: purified human HSD1, cortisone substrate, incubated at 37° C. for 30 min. The protocol: Purified human HSD1 was diluted in 50 mM Tris-HCl, 100 mM NaCl, 0.1 mg/ml BSA, 0.02% Lubrol, 20 mM MgCl2, 10 mM glucose 6-phosphate, 0.4 mM NADPH, 60 U/ml glucose 6-phosphate dehydrogenase to a concentration of 1.5 ug/ml (Enzyme Solution). Cortisone (100 uM) in DMSO was diluted to 1 uM with 50 mM Tris-HCl, 100 mM NaCl (Substrate Solution). Testing compounds (40 uM) in DMSO were diluted 3 fold in series in DMSO and further diluted 20 fold in Substrate Solution. Enzyme Solution (10 ul/well) was added into 384 well microtiter plates followed by diluted compound solutions (10 ul/well) and mixed well. Samples were then incubated at 37° C. for 30 min. EDTA/biotin-cortisol solution (10 ul/well) in 28 mM EDTA, 100 nM biotin-cortisol, 50 mM Tris-HCl, 100 mM NaCl was then added followed by 5 ul/well of anti-cortisol antibody (3.2 ug/ml) in 50 mM Tris-HCl, 100 mM NaCl, 0.1 mg/ml BSA and the solution was incubated at 37° C. for 30 min. Five ul per well of Eu-conjugated anti-mouse IgG (16 nM) and APC-conjugated streptavidin (160 nM) in 50 mM Tris-HCl, 100 mM NaCl, 0.1 mg/ml BSA were added and the solution was incubated at room temperature for 2 hours. Signals were quantitated by reading time-resolved fluorescence on a Victor 5 reader (Wallac).
Percent inhibition of HSD 1 activity by an agent at various concentrations was calculated by the formula % Inhibition=100*[1−(Fs−Fb)/(Ft−Fb)], where: • Fs is the fluorescence signal of the sample which included the agent, • Fb is the fluorescence signal in the absence of HSD1 and agent, • Ft is the fluorescence signal in the presence of HSD1, but no agent.
The inhibitory activities of test compounds were determined by the IC50s, or the concentration of compound that gave 50% inhibition.
One may read the IC50 as the point on the concentration scale where inhibition reaches its midpoint. Read a low IC50 as higher potency. In the case of `CC(C)c1cccc(-c2c(C(=O)N3CCCC4CCCCC43)cnn2C)c1` (stereo not shown) [Example 12, [5-(3-Isopropyl-phenyl)-1-methyl-1H-py-razol-4-yl]-(octa-hydro-quinolin-1-yl)-meth-anone], the midpoint of inhibition, the IC50, lay at 59 nM.

Consider `Cn1ncc(C(=O)N2CCCC3CCCCC32)c1-c1cnc2ccccc2c1` (stereo not shown) [Example 19], for which half-maximal inhibition (IC50) was put at 189 nM. This IC50 is about 3.2-fold higher than that of the compound before.

Turning to `Cn1ncc(C(=O)N2CCCC3CCCCC32)c1-c1cccc(C=O)c1` (stereo not shown) [Example 21, 3-[2-Methyl-4-(octa-hydro-quinoline-1-carbo-nyl)-2H-pyra-zol-3-yl]-benzaldehyde], it took 1000 nM to reach half-maximal inhibition (IC50). Compared with the last compound, the IC50 is about 5.3-fold higher.

Compound `CSc1ccc(-c2c(C(=O)N3CCCC4CCCCC43)cnn2C)cc1` (stereo not shown) [Example 33] gave an IC50 of 78 nM.

In turn, `Cn1ncc(C(=O)N2CCC(Cl)C3CCCCC32)c1-c1ccccc1` (stereo not shown) [Example 36] displayed an IC50 of 600 nM.

`Cn1ncc(C(=O)N2CCCC3CCCCC32)c1-c1ccc(F)c(Cl)c1` (stereo not shown) [Example 39, [5-(3-Chloro-4-fluoro-phenyl)-1-meth-yl-1H-pyrazol-4-yl]-(octa-hydro-quinolin-1-yl)-meth-anone] came in with an IC50 of 208 nM.

In turn, `Cc1c(Cl)cccc1-c1c(C(=O)N2CCCC3CCCCC32)cnn1C` (stereo not shown) [Example 46, [5-(3-Chloro-2-meth-yl-phenyl)-1-meth-yl-1H-pyrazol-4-yl]-(octa-hydro-quinolin-1-yl)-meth-anone] had an IC50 of 38 nM.

Take `Cn1ncc(C(=O)N2CCCC3CCCCC32)c1-c1cccc(C(F)(F)F)c1` (stereo not shown) [Example 49, [1-Methyl-5-(3-tri-fluoromethyl-phenyl)-1H-py-razol-4-yl]-(octa-hydro-quinolin-1-yl)-meth-anone]: 160 nM corresponded to half-maximal inhibition (IC50).

Compound `Cn1ncc(C(=O)N2CCCC3CCCCC32)c1-c1ccc(C(F)(F)F)c(Cl)c1` (stereo not shown) [Example 52, [5-(3-Chloro-4-tri-fluoromethyl-phenyl)-1-meth-yl-1H-pyra-zol-4-yl]-(octa-hydro-quinolin-1-yl)-meth-anone] returned an IC50 of 195 nM.

`Cn1ncc(C(=O)N2CCCC3CCCCC32)c1-c1ccc([N+](=O)[O-])cc1` (stereo not shown) [Example 55, [1-Methyl-5-(4-ni-tro-phenyl)-1H-pyra-zol-4-yl]-(octa-hydro-quinolin-1-yl)-methanone] gave an IC50 of 552 nM. This IC50 is about 2.8-fold higher than that of the compound before.

The compound `Cn1ncc(C(=O)N2CCCC3CCCCC32)c1-c1cccc(O)c1` (stereo not shown) [Example 59, [5-(3-Hydroxy-phe-nyl)-1-methyl-1H-pyra-zol-4-yl]-(octa-hydro-quinolin-1-yl)-meth-anone] yielded an IC50 of 700 nM.

As for `Cn1ncc(C(=O)N2CCCC3CCCCC32)c1-c1ccc(CO)cc1` (stereo not shown) [Example 67, [5-(4-Hydroxy-methyl-phenyl)-1-meth-yl-1H-pyra-zol-4-yl]-(octa-hydro-quinolin-1-yl)-meth-anone], the IC50 worked out at 121 nM.

Turning to `CCOc1ccc(-c2c(C(=O)N3CCCC4CCCCC43)cnn2C)c(Cl)c1` (stereo not shown) [Example 82, [5-(2-Chloro-4-eth-oxy-phenyl)-1-meth-yl-1H-pyrazol-4-yl]-(octa-hydro-quinolin-1-yl)-meth-anone], the midpoint of inhibition, the IC50, lay at 21 nM.

Take `Cn1ncc(C(=O)NC2CCCCCCC2)c1-n1cccc1` [Example 96, 1-Methyl-5-pyrrol-1-yl-1H-py-razole-4-carboxylic acidcyclooctylamide]: the IC50 was determined as 58 nM.

In turn, `Cn1ncc(C(=O)N2CCCC(Cc3ccccc3)C2)c1-n1cccc1` (stereo not shown) [Example 106, (3-Benzyl-piperidin-1-yl)-(1-meth-yl-5-pyrrol-1-yl-1H-py-razol-4-yl)-methanone] showed an IC50 of 1480 nM. Compared with the last compound, the IC50 is about 26-fold higher.

In turn, `CCC1CCCCN1C(=O)c1cnn(C)c1-c1ccccc1` (stereo not shown) [Example 107, (2-Ethyl-piperidin-1-yl)-(1-meth-yl-5-phe-nyl-1H-pyrazol-4-yl)-methanone] yielded an IC50 of 260 nM.
